Reference: ChEMBL document CHEMBL1275243 (2010)
≈ marks a conversion by molar mass, not a printed value. Calls of active or inactive are those of the source. No cut-off for these calls is given here.

Tests used:
[1] = tested on: Bacillus anthracis; test: Antimicrobial activity against Bacillus anthracis A0193 by broth microdilution method; type: functional
[2] = tested on: Bacillus anthracis; test: Antimicrobial activity against Bacillus anthracis A03768 by broth microdilution method; type: functional
[3] = tested on: Bacillus anthracis; test: Antimicrobial activity against Bacillus anthracis Sterne 402 harboring gyrA Ser85Leu mutant gene by broth microdilution method; type: functional, Bacillus anthracis str. Sterne
[4] = tested on: Bacillus anthracis; test: Antimicrobial activity against Bacillus anthracis Sterne 411A2 harboring GyrA Ser85Leu and parC Ser81Phe mutant gene by broth microdilution method; type: functional, Bacillus anthracis str. Sterne
[5] = tested on: Bacillus anthracis; test: Antimicrobial activity against Bacillus anthracis A0248 by broth microdilution method; type: functional
[6] = tested on: Bacillus anthracis; test: Antimicrobial activity against Bacillus anthracis A0465 by broth microdilution method; type: functional
[7] = tested on: Bacillus anthracis; test: Antimicrobial activity against Bacillus anthracis A0462 by broth microdilution method; type: functional
[8] = tested on: Bacillus anthracis; test: Antimicrobial activity against Bacillus anthracis Sterne 411A2 assessed as growth inhibition at 16 ug/ml after 4 hrs relative to control; type: functional, organism-based; details: Bacillus anthracis str. Sterne
[9] = tested on: Bacillus anthracis; test: Antimicrobial activity against Bacillus anthracis A0149 by broth microdilution method; type: functional
[10] = tested on: Bacillus anthracis; test: Antimicrobial activity against Bacillus anthracis 240 by broth microdilution method; type: functional
[11] = tested on: Bacillus anthracis; test: Antimicrobial activity against Bacillus anthracis A0419 by broth microdilution method; type: functional
[12] = tested on: Bacillus anthracis; test: Antimicrobial activity against Bacillus anthracis A0488 by broth microdilution method; type: functional
[13] = tested on: Bacillus anthracis; test: Antimicrobial activity against pXO1-positive and pXO2 negative Bacillus anthracis 34F2 by broth microdilution method; type: functional
[14] = tested on: Bacillus anthracis; test: Antimicrobial activity against Bacillus anthracis A0188 by broth microdilution method; type: functional
[15] = tested on: Bacillus anthracis; test: Antimicrobial activity against Bacillus anthracis A0293 by broth microdilution method; type: functional
[16] = tested on: Bacillus anthracis; test: Antimicrobial activity against Bacillus anthracis A0102 by broth microdilution method; type: functional
[17] = tested on: Bacillus anthracis; test: Antimicrobial activity against Bacillus anthracis A0264 by broth microdilution method; type: functional
[18] = tested on: Bacillus anthracis; test: Antimicrobial activity against tetracycline-nonsusceptible Bacillus anthracis Sterne S1028 by broth microdilution method; type: functional, Bacillus anthracis str. Sterne

Row | Compound | MIC [1] [µg/mL] | MIC [2] [µg/mL] | MIC [3] | MIC [4] | MIC [5] [µg/mL] | MIC [6] [µg/mL] | MIC [7] [µg/mL] | inhibition [8] | MIC [9] [µg/mL] | MIC [10] [µg/mL] | MIC [11] [µg/mL] | MIC [12] [µg/mL] | MIC [13] [µg/mL] | MIC [14] [µg/mL] | MIC [15] [µg/mL] | MIC [16] [µg/mL] | MIC [17] [µg/mL] | MIC [18] [µg/mL]
1 | O=C(O)c1cn(C2CC2)c2cc(N3CCNCC3)c(F)cc2c1=O [CIPROFLOXACIN] | 0.015 (≈ 0.0453 µM) | 0.12 (≈ 0.362 µM) | 1 µg/mL (≈ 3.02 µM) | >16 µg/mL | 0.12 (≈ 0.362 µM) | 0.03 (≈ 0.0905 µM) | 0.12 (≈ 0.362 µM) | inactive | – | – | – | – | – | – | – | – | – | –
2 | C[C@H]1c2cccc(O)c2C(=O)C2=C(O)[C@]3(O)C(=O)C(C(N)=O)=C(O)[C@@H](N(C)C)[C@@H]3[C@@H](O)[C@@H]21.O [DOXYCYCLINE] | ≤ 0.06 | ≤ 0.06 | <=0.06 ug ml-1 | <=0.06 ug ml-1 | ≤ 0.06 | ≤ 0.06 | ≤ 0.06 | – | ≤ 0.06 | ≤ 0.06 | ≤ 0.06 | ≤ 0.06 | ≤ 0.06 | ≤ 0.06 | ≤ 0.06 | ≤ 0.06 | ≤ 0.06 | 1
